Assay results published in PubChem BioAssay (NCI).
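Growth conditions: 96-well plates. Treatment: test compound, 48 hours, 5 concentrations. Analysis: linear interpolation between bracketing concentrations; unreached endpoints set to highest concentration. Abbreviation: GI50, concentration required for 50% inhibition of growth. TGI marks complete inhibition of growth.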

Experiments:
Assay in all cases: inhibition of tumour cell growth, NCI panel, 48 h
[1] = test system: 786-0 renal
[2] = test system: A498 renal
[3] = test system: A549 NSCLC
[4] = test system: ACHN renal
[5] = test system: BT-549 breast
[6] = test system: CAKI-1 renal
[7] = test system: CCRF-CEM leukemia
[8] = test system: COLO 205 colon
[9] = test system: DU-145 prostate
[10] = test system: EKVX NSCLC
[11] = test system: HCC-2998 colon
[12] = test system: HCT-116 colon
[13] = test system: HCT-15 colon
[14] = test system: HL-60(TB) leukemia
[15] = test system: HOP-62 NSCLC
[16] = test system: HOP-92 NSCLC
[17] = test system: HS 578T breast
[18] = test system: HT29 colon
[19] = test system: IGROV1 ovarian
[20] = test system: K-562 leukemia
[21] = test system: KM12 colon
[22] = test system: LOX IMVI melanoma
[23] = test system: M14 melanoma
[24] = test system: MALME-3M melanoma
[25] = test system: MCF7 breast
[26] = test system: MDA-MB-231 breast
[27] = test system: MDA-MB-435
[28] = test system: MOLT-4 leukemia
[29] = test system: NCI-H226 lung
[30] = test system: NCI-H23 lung
[31] = test system: NCI-H460 lung
[32] = test system: NCI-H522 lung
[33] = test system: NCI/ADR-RES ovarian
[34] = test system: OVCAR-3 ovarian
[35] = test system: OVCAR-4 ovarian
[36] = test system: OVCAR-5 ovarian
[37] = test system: OVCAR-8 ovarian
[38] = test system: PC-3 prostate
[39] = test system: RPMI-8226 leukemia
[40] = test system: RXF 393 renal
[41] = test system: SF-268 CNS
[42] = test system: SF-295 CNS
[43] = test system: SF-539 CNS
[44] = test system: SK-MEL-2 melanoma
[45] = test system: SK-MEL-28 melanoma
[46] = test system: SK-MEL-5 melanoma
[47] = test system: SK-OV-3 ovarian
[48] = test system: SN12C renal
[49] = test system: SNB-19 CNS
[50] = test system: SNB-75 CNS
[51] = test system: SR leukemia
[52] = test system: SW-620 colon
[53] = test system: T-47D breast
[54] = test system: TK-10 renal
[55] = test system: U251 CNS
[56] = test system: UACC-257 melanoma
[57] = test system: UACC-62 melanoma
[58] = test system: UO-31 renal

`Cn1cc(-c2nc(N)nnc2-c2c[nH]c3ccccc23)c2cc(Br)ccc21` gave a GI50 [1] of 2.65 µM, a TGI [1] of 17.6 µM and a GI50 [2] of 1.19 µM. The TGI [2] was 5.7 µM, the GI50 [3] was 1.55 µM and the TGI [3] was 39.7 µM. The GI50 [4] was 3.57 µM, the TGI [4] was 20 µM and the GI50 [5] was 1.53 µM. It also gave a TGI [5] of 14.5 µM, a GI50 [6] of 0.536 µM and a TGI [6] of 13.6 µM. It also gave a GI50 [7] of 2.21 µM, a TGI [7] of 13.5 µM and a GI50 [8] of 0.877 µM. The TGI [8] was 7.13 µM, the GI50 [9] was 3.26 µM and the TGI [9] was 14.8 µM. For the same compound, the GI50 [10] was 2.62 µM, the TGI [10] was 23.4 µM and the GI50 [11] was 2.7 µM. It also gave a TGI [11] of 13.7 µM, a GI50 [12] of 0.518 µM and a TGI [12] of 11.9 µM. For the same compound, the GI50 [13] was 0.552 µM, the TGI [13] was 16.4 µM and the GI50 [14] was 0.451 µM. For the same compound, the TGI [14] was 7.69 µM, the GI50 [15] was 2.52 µM and the TGI [15] was 19.9 µM. The GI50 [16] was 2.62 µM, the TGI [16] was 22.4 µM and the GI50 [17] was 1.89 µM. The TGI [17] was 9.3 µM, the GI50 [18] was 0.483 µM and the TGI [18] was 5.38 µM. For the same compound, the GI50 [19] was 0.9 µM, the TGI [19] was 24.2 µM and the GI50 [20] was 0.393 µM. The TGI [20] was 13.2 µM, the GI50 [21] was 0.591 µM and the TGI [21] was 11.9 µM. The GI50 [22] was 1.37 µM, the TGI [22] was 27.4 µM and the GI50 [23] was 0.768 µM. For the same compound, the TGI [23] was 8.45 µM, the GI50 [24] was 6.12 µM and the TGI [24] was 32.2 µM. For the same compound, the GI50 [25] was 0.48 µM, the TGI [25] was 16.4 µM and the GI50 [26] was 4.49 µM. It also gave a TGI [26] of 66.1 µM, a GI50 [27] of 0.312 µM and a TGI [27] of 11.8 µM. For the same compound, the GI50 [28] was 0.684 µM, the TGI [28] was 4.05 µM and the GI50 [29] was 2.39 µM. It also gave a TGI [29] of 15.9 µM, a GI50 [30] of 2.21 µM and a TGI [30] of 17.2 µM. It also gave a GI50 [31] of 0.551 µM, a TGI [31] of 12.2 µM and a GI50 [32] of 0.646 µM. It also gave a TGI [32] of 8.03 µM, a GI50 [33] of 1.67 µM and a TGI [33] of 18.6 µM. The GI50 [34] was 0.507 µM, the TGI [34] was 4.94 µM and the GI50 [35] was 3.72 µM. The TGI [35] was 21.8 µM, the GI50 [36] was 5.9 µM and the TGI [36] was 25.5 µM. The GI50 [37] was 3.62 µM, the TGI [37] was 69.5 µM and the GI50 [38] was 2.12 µM. It also gave a TGI [38] of 64 µM, a GI50 [39] of 2.35 µM and a TGI [39] of 46.2 µM. For the same compound, the GI50 [40] was 1.17 µM, the TGI [40] was 4.4 µM and the GI50 [41] was 2.51 µM. The TGI [41] was 18.6 µM, the GI50 [42] was 0.922 µM and the TGI [42] was 11.4 µM. It also gave a GI50 [43] of 2.17 µM, a TGI [43] of 6.88 µM and a GI50 [44] of 1.9 µM. For the same compound, the TGI [44] was 13.6 µM, the GI50 [45] was 6.98 µM and the TGI [45] was 22.5 µM. The GI50 [46] was 1.58 µM, the TGI [46] was 9.96 µM and the GI50 [47] was 3.02 µM. It also gave a TGI [47] of 18.7 µM, a GI50 [48] of 5.17 µM and a TGI [48] of 47.9 µM. For the same compound, the GI50 [49] was 2.05 µM, the TGI [49] was 22.7 µM and the GI50 [50] was 0.46 µM. It also gave a TGI [50] of 4.54 µM, a GI50 [51] of 0.312 µM and a TGI [51] of 2.43 µM. For the same compound, the GI50 [52] was 0.67 µM, the TGI [52] was 15.9 µM and the GI50 [53] was 0.783 µM. The TGI [53] was 24.4 µM, the GI50 [54] was 6.01 µM and the TGI [54] was 34.3 µM. It also gave a GI50 [55] of 2.26 µM, a TGI [55] of 15.2 µM and a GI50 [56] of 7.26 µM. For the same compound, the TGI [56] was 22.4 µM, the GI50 [57] was 0.988 µM and the TGI [57] was 18.9 µM. It also gave a GI50 [58] of 1.99 µM and a TGI [58] of 20.8 µM.
